Assay results reported in paper PMC6348443 (Journal of Medicinal Chemistry, 2018).
Entries after “also recorded” stand apart in the source; their conditions may differ. Where a name gives a salt, the structure may show the parent alone. Read-outs that look alike come from different tables or passages of the source.

Tests used:
[1] = target: T1, MOR (Homo sapiens, UniProt P35372); assay: [35S]GTPγS binding assay, CHO-hMOR membranes; type: biochemical; settings: for Emax: relative to reference full agonist DAMGO, read-out: MOR % stim.
T1 construct: host or cells: CHO (CHO-hMOR)

[2] = target: T2, KOR (Homo sapiens, UniProt P41145); assay: [35S]GTPγS binding assay, CHO-hKOR membranes; type: biochemical; settings: for Emax: relative to reference full agonist U69,593, read-out: KOR % stim.
T2 construct: host or cells: CHO (CHO-hKOR)

[3] = system: male CD1 mice; assay: acetic acid-induced writhing assay after sc administration; type: in vivo, mouse; settings: Mus musculus, 0.5 h, read-out: ED50 (95% CI), mice, sc, inhibition of writhing 30 min after drug administration
[4] = target: T1, MOR; assay: competition radioligand binding, CHO cell membranes expressing human MOR, [3H]DAMGO
Method: (§1) Membranes from CHO cells expressing human opioid receptors were prepared in 50 mM Tris-HCl buffer (pH 7.7) according to a previously described procedure.[64] Cells expressing human opioid receptors grown at confluence were removed from the culture plates by scraping, homogenized in 50 mM Tris buffer (pH 7.7), using a Polytron homogenizer, then centrifuged once and washed by an additional centrifugation at 27 000g for 15 min, at 4 °C. The final pellet was resuspended in Tris buffer and stored at −80 °C until use. Protein content of brain and cell membrane preparation homogenates was determined by the method of Bradford using bovine serum albumin as the standard.[65]
(§2) Rat brain membranes were incubated with either [^3H]DAMGO (1 nM, 45 min, 35 °C) or [^3H][Ile^5,6]deltorphin II (0.5 nM, 45 min, 35 °C) for labeling MOR or DOR receptors, respectively. Guinea-pig brain membranes were incubated with [^3H]U69,593 (1 nM, 30 min, 30 °C) for labeling KOR. Binding assays with CHO cell membranes were conducted at 25 °C for 60 min using [^3H]DAMGO (1 nM) or [^3H]diprenorphine (0.2 nM) for labeling MOR or DOR, respectively. Nonspecific binding was determined using 10 μM naloxone (rodent brain) or 1–10 μM of the unlabeled counterpart of each radioligand (CHO cells). Reactions were terminated by rapid filtration through Whatman glass fiber GF/C filters. Filters were washed three times with 5 mL of ice-cold 50 mM Tris-HCl buffer (pH 7.4) using a Brandel M24R cell harvester (Gaithersburg, MD). Radioactivity retained on the filters was counted by liquid scintillation counting using a Beckman Coulter LS6500 (Beckman Coulter Inc., Fullerton, CA). All binding experiments were performed in duplicate and repeated at least three times.
(§3) aDetermined in competition radioligand binding assays using CHO cell membranes expressing
(§4) human MOR and DOR. Values represent the mean ± SEM of three independent experiments each

[5] = target: T3, DOR (Homo sapiens, UniProt P41143); assay: competition radioligand binding, CHO cell membranes expressing human DOR, [3H]diprenorphine
T3 construct: host or cells: CHO (CHO-hDOR)
Method: as §1, §2, §3, §4

[6] = system: peripheral opioid receptors; assay: antagonism by naloxone methiodide in the acetic acid-induced writhing assay; type: in vivo, mouse; settings: sc co-administration with naloxone methiodide 1 mg/kg; agonist 50 or 200 μg/kg sc; 30 min
Description: To determine whether targeted 6-amino acid and 6-dipeptide analogues inhibit writhing behavior in mice through peripheral opioid receptors activation, we used naloxone methiodide.[27]
Values are shown as mean of writhes ± SEM (n = 6–7 mice per group). ***P < 0.001 vs control group; ^#P < 0.05, ^##P < 0.01 and ^###P < 0.001 vs agonist treated group, ANOVA with Tukey’s post hoc test.
Writhing was induced in male CD1 mice by ip injection of a 0.6% acetic acid aqueous solution as described previously.[48],[62] Groups of mice were administered sc different doses of test compound or saline (control), and 5 min prior to testing (25 min after drug or saline), each animal received an ip injection of acetic acid solution. Each mouse was placed in individual transparent Plexiglas chambers, and the number of writhes was counted during a 10 min observation period. […] For the antagonism study, naloxone methiodide was sc co-administered with the respective opioid agonist, and writhing was assessed as described above.

[7] = system: male CD1 mice; settings: sc; cited from earlier work
[8] = system: MOR; settings: systemic sc 2b, icv CTAP; cited from earlier work
[9] = system: mouse; parameters: method as in PMID 25721395; settings: systemic ip administration; cited from earlier work
[10] = system: rats; parameters: method as in PMID 16339394; settings: given orally; cited from earlier work
[11] = target: T4, MOR (Rattus norvegicus, UniProt P33535); assay: competition radioligand binding, rat brain membranes, [3H]DAMGO; settings: for Ki: rat brain membranes, read-out: opioid receptor binding Ki MOR
T4 construct: Membranes were prepared from Sprague-Dawley rat brains or guinea-pig brains according to the described procedures; tissue Labortierkunde und Laborgenetik, Medizinische Universität Wien; host or cells: Sprague-Dawley rat brain without cerebella

[12] = target: T5, DOR (Rattus norvegicus, UniProt P33533); assay: competition radioligand binding, rat brain membranes, [3H][Ile5,6]deltorphin II; settings: for Ki: rat brain membranes, read-out: opioid receptor binding Ki DOR
T5 construct: Membranes were prepared from Sprague-Dawley rat brains or guinea-pig brains according to the described procedures; tissue Labortierkunde und Laborgenetik, Medizinische Universität Wien; host or cells: Sprague-Dawley rat brain without cerebella

[13] = target: T6, KOR (Cavia porcellus, UniProt P41144); assay: competition radioligand binding, guinea-pig brain membranes, [3H]U69,593; settings: guinea-pig brain membranes; read-out: opioid receptor binding Ki KOR
T6 construct: Membranes were prepared from Sprague-Dawley rat brains or guinea-pig brains according to the described procedures; tissue Labortierkunde und Laborgenetik, Medizinische Universität Wien; host or cells: guinea-pig brain without cerebella

[14] = target: T3, DOR; assay: [35S]GTPγS binding assay, CHO-hDOR membranes; type: biochemical; settings: for EC50: [35S]GTPγS, CHO human DOR membranes; for Emax: relative to reference full agonist DPDPE, read-out: DOR % stim.
[15] = [35S]GTPγS, CHO human MOR membranes, read-out: MOR EC50
[16] = [35S]GTPγS, CHO human KOR membranes, read-out: KOR EC50

Structure (SMILES): CO[C@@]12CC[C@@H](NCC(=O)O)[C@@H]3Oc4c(O)ccc5c4[C@@]31CCN(C)[C@@H]2C5 [Compound 2b, 2-[(4,5α-Epoxy-3-Hydroxy-14β-Methoxy-17-Methylmorphinan-6β-yl)Amino]Acetic Acid]
- EC50 [1]: 3.78 ± 0.73 nM
- Emax [1]: 98 ± 9%
- EC50 [2]: 361 ± 154 nM
- Emax [2]: 82 ± 9%
- ED50 [3]: 0.0275 mg/kg
- Ki [4]: 0.9 ± 0.14 nM
- Ki [5]: 10.1 ± 2.7 nM
- effect of naloxone methiodide on antinociceptive effect [6]: reversed; also recorded: antagonized
- more potent than morphine in inhibiting the writhing response [7]: 24 times
- effect of intracerebroventricular CTAP on antinociceptive effects [8]: did not reverse
- effect of naloxone methiodide on antinociceptive effects [9]: completely antagonized
- effect of sc naloxone methiodide on antihyperalgesic effects [10]: reversed

Structure (SMILES): CO[C@@]12CC[C@@H](N[C@@H](CCCCN)C(=O)O)[C@@H]3Oc4c(O)ccc5c4[C@@]31CCN(C)[C@@H]2C5 [Compound 8b, (2S)-6-Amino-2-[(4,5α-epoxy-3-hydroxy-14β-methoxy-17-methylmorphinan-6β-yl)amino]hexanoic Acid Trihydrochloride]
- Ki [11]: 0.53 ± 0.09 nM
- Ki [12]: 3.34 ± 0.46 nM
- Ki [13]: 33.7 ± 4.1 nM
- EC50 [1, 15]: 6.85 ± 1.39 nM
- Emax [1]: 90 ± 7%
- EC50 [14]: 45.1 ± 22.7 nM
- Emax [14]: 93 ± 8%
- EC50 [2, 16]: 525 ± 24 nM
- Emax [2]: 62 ± 7%
- effect of naloxone methiodide on antinociceptive effect [6]: antagonized

Structure (SMILES): CO[C@@]12CC[C@H](N[C@H](C(=O)O)C3CCCCC3)[C@@H]3Oc4c(O)ccc5c4[C@@]31CCN(C)[C@@H]2C5 [Compound 18a, (2S)-2-[(4,5α-Epoxy-3-hydroxy-14β-methoxy-17-methyl-morphinan-6α-yl)-amino]-2-cyclohexylacetic Acid Dihydrochloride]
- Ki ratio MOR/DOR/KOR ([11]; from Ki in rat (MOR, DOR) and guinea-pig (KOR) brain membranes): 1/12/144
- Ki [11]: 1.23 ± 0.2 nM
- Ki [12]: 14.3 ± 0.09 nM
- decreased DOR affinity vs 6β analogue ([12]; rat brain, 18a vs 18b, 19a vs 19b): 11 times
- Ki [13]: 177 ± 30 nM
- EC50 [1, 15]: 2.88 ± 1.21 nM
- Emax [1]: 86 ± 8%
- EC50 [14]: 20.5 ± 8 nM
- Emax [14]: 101 ± 1%
- EC50 [2, 16]: 250 ± 80 nM
- Emax [2]: 52 ± 6%
- ED50 [3]: 0.0206 mg/kg
- effect of naloxone methiodide on antinociceptive effect [6]: reversed

Structure (SMILES): CO[C@@]12CC[C@@H](N[C@H](C(=O)O)C3CCCCC3)[C@@H]3Oc4c(O)ccc5c4[C@@]31CCN(C)[C@@H]2C5 [Compound 18b, (2S)-2-[(4,5α-Epoxy-3-hydroxy-14β-methoxy-17-methyl-morphinan-6β-yl)-amino]-2-cyclohexylacetic Acid Dihydrochloride]
- Ki [11]: 1.66 ± 1.04 nM
- Ki [12]: 1.3 ± 0.16 nM
- Ki [13]: 118 ± 23 nM
- EC50 [1, 15]: 5.33 ± 0.89 nM
- Emax [1]: 86 ± 9%
- EC50 [14]: 3.57 ± 1.63 nM
- Emax [14]: 96 ± 10%
- EC50 [2, 16]: 282 ± 58 nM
- Emax [2]: 59 ± 7%
- effect of naloxone methiodide on antinociceptive effect [6]: antagonized

Structure (SMILES): CC[C@H](N[C@@H]1CC[C@@]2(OC)[C@H]3Cc4ccc(O)c5c4[C@@]2(CCN3C)[C@H]1O5)C(=O)O [Compound 19b, (2S)-2-[(4,5α-Epoxy-3-hydroxy-14β-methoxy-17-methylmorphinan-6β-yl)amino]-2-ethylacetic Acid Dihydrochloride]
- Ki [11]: 1.83 ± 0.04 nM
- Ki [12]: 1.3 ± 0.24 nM
- Ki [13]: 201 ± 10 nM
- EC50 [1, 15]: 5.47 ± 1.18 nM
- Emax [1]: ~80%
- increased agonist potency at DOR vs MOR ([14]; [35S]GTPγS EC50): 2–4 times
- EC50 [14]: 2.22 ± 1.64 nM
- Emax [14]: 100 ± 3%
- EC50 [2, 16]: 572 ± 18 nM
- Emax [2]: 72 ± 0.5%
- Ki [4]: 2.1 ± 0.33 nM
- Ki [5]: 1.99 ± 0.84 nM
- effect of naloxone methiodide on antinociceptive effect [6]: antagonized
